# Publication PMC3880646 (Journal of medicinal chemistry, 2013)
# What was measured:
# [1] = system: p53 activation in SJSA-1 osteosarcoma cell line; test: Western blot analysis of p53 activation and PARP cleavage in SJSA-1 cells; assay type: cell-based, human; conditions: for full-length PARP (apoptosis induction) / p53 activation (accumulation of p53, MDM2 and p21): 24 h
# [2] = system: p53 activation and apoptosis in SJSA-1 xenograft tumor tissues; test: Pharmacodynamics study in SJSA-1 xenograft tumor tissues
# [3] = system: SJSA-1 xenograft model; conditions: cited from earlier work; for tumor growth in SJSA-1 xenograft model: high oral doses (200–300 mg/kg) ref 8, 21
# [4] = single oral dose 100 mg/kg, 24 h
structure (smiles),measurement,setting,value
"COc1ccc(C2=N[C@@H](c3ccc(Cl)cc3)[C@@H](c3ccc(Cl)cc3)N2C(=O)N2CCNC(=O)C2)c(OC(C)C)c1 [Nutlin-3a, reference compound]",full-length PARP (apoptosis induction),[1]; Western blot,dose-dependently diminished
same,"p53 activation (accumulation of p53, MDM2 and p21)",[1]; Western blot,effectively and dose-dependently activate p53
CC(C)(C)C[C@@H]1N[C@@H](C(=O)N[C@H]2C[C@@](C)(O)C2)[C@H](c2cccc(Cl)c2F)[C@]12C(=O)Nc1cc(Cl)ccc12 [Compound 9],times more potent than 2 in p53 activation,[1],at least 3 times
same,times more potent than Nutlin-3a in p53 activation,[1],10 times
same,full-length PARP (apoptosis induction),[1]; Western blot,dose-dependently diminished
same,"p53 activation (accumulation of p53, MDM2 and p21)",[1]; Western blot,effectively and dose-dependently activate p53
same,lowest concentration activating p53 (clear accumulation of p21 and p53),[1]; Western blot,30 nM
same,cleavage of PARP and caspase-3 in tumor tissue,"[2]; single oral dose 100 mg/kg, 1, 3 and 6 h",minimal
same,"p53, p21 and MDM2 protein levels in tumor tissue","[2]; single oral dose 100 mg/kg, 3 h and 6 h",robust upregulation
same,cleavage of PARP and caspase-3 in tumor tissue,[2]; [4],very clear
same,"p53, p21 and MDM2 protein levels in tumor tissue",[2]; [4],significantly diminished
CC(C)(C)C[C@H]1N[C@@H](C(=O)NCC[C@H](O)CO)[C@H](c2cccc(Cl)c2)[C@@]12C(=O)Nc1cc(Cl)c(F)cc12 [Compound 1],complete tumor regression,[3],failed to achieve complete tumor regression
same,tumor growth in SJSA-1 xenograft model,[3],inhibited tumor growth
CC(C)(C)C[C@@H]1N[C@@H](C(=O)NCC[C@H](O)CO)[C@H](c2cccc(Cl)c2F)[C@]12C(=O)Nc1cc(Cl)ccc12 [Compound 2],full-length PARP (apoptosis induction),[1]; Western blot,dose-dependently diminished
same,"p53 activation (accumulation of p53, MDM2 and p21)",[1]; Western blot,effectively and dose-dependently activate p53
same,complete tumor regression,[3],failed to achieve complete tumor regression
same,tumor growth in SJSA-1 xenograft model,[3],inhibited tumor growth
